From the NIST ThermoML archive (doi:10.1016/j.jct.2016.02.014)

Test: xn = mol fraction of the nth substance listed
Conditions: 100 kPa, Liquid; for viscosity: Capillary tube (Ostwald / Ubbelohde) method; for mass density: Vibrating tube method

O=C1CCCO1 [γ-butyrolactone] + CCCCn1cc[n+](C)c1.N#CN=C=[N-]
Conditions | mass density [kg/m3] | viscosity [mPa·s]
273.15 K, x2 = 0 | 1149.15 | 2.69
273.15 K, x2 = 0.0504 | 1142.33 | 3.61
273.15 K, x2 = 0.1002 | 1136.31 | 4.65
273.15 K, x2 = 0.2002 | 1124.63 | 7.69
273.15 K, x2 = 0.2984 | 1114.82 | 11.85
273.15 K, x2 = 0.4005 | 1106.01 | 17.81
273.15 K, x2 = 0.4954 | 1099.09 | 24.81
273.15 K, x2 = 0.6957 | 1087.48 | 45.75
273.15 K, x2 = 0.8871 | 1079.17 | 74.11
283.15 K, x2 = 0 | 1139.31 | 2.21
283.15 K, x2 = 0.0504 | 1133.08 | 2.94
283.15 K, x2 = 0.1002 | 1127.5 | 3.73
283.15 K, x2 = 0.2002 | 1116.53 | 5.87
283.15 K, x2 = 0.2984 | 1107.21 | 8.75
283.15 K, x2 = 0.4005 | 1098.76 | 12.54
283.15 K, x2 = 0.4954 | 1092.29 | 16.9
283.15 K, x2 = 0.6957 | 1081.06 | 29.14
283.15 K, x2 = 0.8871 | 1072.88 | 44.36
293.15 K, x2 = 0 | 1129.49 | 1.86
293.15 K, x2 = 0.0504 | 1123.86 | 2.42
293.15 K, x2 = 0.1002 | 1118.73 | 2.97
293.15 K, x2 = 0.2002 | 1108.38 | 4.53
293.15 K, x2 = 0.2984 | 1099.49 | 6.68
293.15 K, x2 = 0.4005 | 1091.44 | 9.31
293.15 K, x2 = 0.4954 | 1085.13 | 12.22
293.15 K, x2 = 0.6957 | 1074.27 | 19.95
293.15 K, x2 = 0.8871 | 1066.34 | 28.87
298.15 K, x2 = 0 | 1124.59 | 1.71
298.15 K, x2 = 0.0504 | 1119.26 | 2.22
298.15 K, x2 = 0.1002 | 1114.35 | 2.77
298.15 K, x2 = 0.2002 | 1104.32 | 4.16
298.15 K, x2 = 0.2984 | 1095.65 | 5.92
298.15 K, x2 = 0.4005 | 1087.78 | 8.18
298.15 K, x2 = 0.4954 | 1081.58 | 10.57
298.15 K, x2 = 0.6957 | 1070.9 | 16.81
298.15 K, x2 = 0.8871 | 1063.09 | 23.85
303.15 K, x2 = 0 | 1119.68 | 1.59
303.15 K, x2 = 0.0504 | 1114.67 | 2.03
303.15 K, x2 = 0.1002 | 1109.99 | 2.5
303.15 K, x2 = 0.2002 | 1100.28 | 3.81
303.15 K, x2 = 0.2984 | 1091.83 | 5.27
303.15 K, x2 = 0.4005 | 1084.14 | 7.14
303.15 K, x2 = 0.4954 | 1078.05 | 9.15
303.15 K, x2 = 0.6957 | 1067.55 | 14.23
303.15 K, x2 = 0.8871 | 1059.86 | 19.86
313.15 K, x2 = 0 | 1109.87 | 1.37
313.15 K, x2 = 0.0504 | 1105.49 | 1.74
313.15 K, x2 = 0.1002 | 1101.27 | 2.14
313.15 K, x2 = 0.2002 | 1092.23 | 3.14
313.15 K, x2 = 0.2984 | 1084.22 | 4.27
313.15 K, x2 = 0.4005 | 1076.84 | 5.64
313.15 K, x2 = 0.4954 | 1071.02 | 7.11
313.15 K, x2 = 0.6957 | 1060.89 | 10.69
313.15 K, x2 = 0.8871 | 1053.44 | 14.53
323.15 K, x2 = 0 | 1100.05 | 1.2
323.15 K, x2 = 0.0504 | 1096.31 | 1.52
323.15 K, x2 = 0.1002 | 1092.59 | 1.83
323.15 K, x2 = 0.2002 | 1084.21 | 2.63
323.15 K, x2 = 0.2984 | 1076.75 | 3.56
323.15 K, x2 = 0.4005 | 1069.73 | 4.6
323.15 K, x2 = 0.4954 | 1064.05 | 5.7
323.15 K, x2 = 0.6957 | 1054.29 | 8.38
323.15 K, x2 = 0.8871 | 1047.09 | 11.03
